Columns and labels:
LTB4 = assay: Reverse passive Arthus pleurisy assay, inflammatory mediator release: LTB4; assay type: in vivo, rat (male Lewis); settings: 25 mg/kg p.o., 3 hours before challenge
[1] = test system: biosynthesis of LTB4 by isolated human neutrophils; assay: Inhibition of LTB4 biosynthesis by isolated human neutrophils (PMN); assay type: cell-based; settings: Neutrophil, A23187 stimulated human PMN, read-out: % Inhibition of LTB4 Synthesis
Procedure: The ability of the compounds of the invention to inhibit the biosynthesis of LTB4 by isolated human neutrophils is evaluated in the following assay, which is carried out in this manner.
A leukocyte enriched blood sample obtained from a healthy donor is procured by leukophoresis using a Haemonetics model 30+ blood processor (Biological Specialties, Inc., Lansdale, Pa.). The top "platelet-rich" layer is removed after a low speed spin (35×g, 15 min, 25° C.) of the sample. The remaining cell suspension is centrigued (400×g, 10 min, 25° C.) to sediment the remaining cells. The supernatant is discarded and the cell pellet resuspended in 120 ml HBSS (without Ca^++ /Mg++). The cell suspension is subjected to ficoll-hypaque sedimentation (Histopaque 1077, 400×g, 30 min, 25° C.). Contaminating erythrocytes are lysed by hypotonic shock (1 min). The cells are then washed once with 40 ml of HBSS and resuspended with HBS S (without Ca^++ /Mg^++) to a concentration of 2.5×10^7 cells/ml for further use. Greater than 95% purity is obtained as assessed by microscopic examination.
One ml of human PMN (2.5×10^7 cells/ml) is incubated with vehicle or drugs (10 μl) for 10 min at 30° C. After preincubation, an equal volume of HBSS (1 ml) containing 2.4 mM CaCl2, 6 μM calcium ionophore A23187 and 50 μCi[^3 H]-acetate is then incubated at 30° C. for 15 minutes. An aliquot (100 μl) of the reaction mixture is taken out and mixed with 900 μl of 15% ethanol. LTB4 is extracted by using solid phase extraction on reverse phase C18 columns to remove excess [^3 H]-acetate and PAF. The C18 column is prewashed once with 2 ml of ethanol and water. The sample aliquot is acidified with 0.1 N HCl to pH3 before applying to the column. The column is then washed with 2 ml of water followed by 2 ml of 15% ethanol and 2 ml of petroleum ether to remove excess labeled acetate. The sample is eluted with 2 ml of ethyl acetate. The collected samples are dried with nitrogen and resuspended in 0.5 ml RIA buffer. The quantity of LTB4 in the sample is obtained from RIA determination.
Data presented are the mean +/- s.d. of the values relative to control A23187 stimulated cells for each experiment assayed in triplicate. Percent inhibition when used is calculated as:
% Inhibition=100-[(×.div.Control )×100]
Dose response analysis is performed by non-linear regression analysis for curve fitting and IC50 determination.

CC(C(=O)N(C)O)c1ccc(-c2ccc(OCc3csc(-c4ccccc4)n3)cc2)cc1 (stereo not drawn) [Example 21, N-Hydroxy-N,α-dimethyl-4'-[(2-phenylthiazol-4-yl)methoxy][1,1'-biphenyl]-4-acetamide]
% Inhibition of LTB4 Synthesis (LTB4): 8% | inhibition at 2.5 µM [1]: 91.2%
